Experiments:
[1] = system: short duplex DNA substrate (EtBr-DS); assay: Ethidium bromide displacement assay; assay type: binding; conditions: compound at exonuclease IC50 of SNM1A, 10 min
[2] = molecular target: T1, SNM1A (Homo sapiens, UniProt Q6PJP8); assay: Gel-based secondary screen validation; assay type: biochemical; conditions: 25 and 6.25 μM compound
T1 sequence (Q6PJP8 698-1040): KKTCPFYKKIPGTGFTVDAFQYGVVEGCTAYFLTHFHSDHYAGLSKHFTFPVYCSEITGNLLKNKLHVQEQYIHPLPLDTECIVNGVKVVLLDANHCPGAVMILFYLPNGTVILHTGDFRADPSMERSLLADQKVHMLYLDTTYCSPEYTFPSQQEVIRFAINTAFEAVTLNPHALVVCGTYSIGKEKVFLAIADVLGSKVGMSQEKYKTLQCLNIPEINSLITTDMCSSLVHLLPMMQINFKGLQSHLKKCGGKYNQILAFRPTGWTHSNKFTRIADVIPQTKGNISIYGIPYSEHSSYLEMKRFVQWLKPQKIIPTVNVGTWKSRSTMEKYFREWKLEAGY

[3] = system: HeLa cells; assay: Cisplatin potentiation assay; assay type: cell-based; conditions: 25 μM compound + […] μM cisplatin (LD10), 72 h, alamarBlue
[4] = system: nuclease; conditions: cited from earlier work
[5] = molecular target: T2, SNM1A exonuclease activity (Homo sapiens, UniProt Q6PJP8); assay: Gel-based IC50 determination, SNM1A exonuclease activity; conditions: 0.2 nM SNM1A, 110 nM 5P-1F, 60 min, 37 °C, triplicate
T2 sequence (Q6PJP8 698-1040): T1 sequence (Q6PJP8 698-1040)

O=C(O[C@@H]1Cc2c(O)cc(O)cc2O[C@@H]1c1cc(O)c(=O)c2c(O)c(O)cc([C@H]3Oc4cc(O)cc(O)c4C[C@H]3OC(=O)c3cc(O)c(O)c(O)c3)c2c1)c1cc(O)c(O)c(O)c1 [Compound 40, […]]
Displacement of ethidium bromide from DNA [1]: apparent nonspecific interactions with DNA

O=C1OC2(c3ccc(O)cc3Oc3cc(O)ccc32)c2ccccc21 [Compound 54, FLUORESCEIN]
Assay interference in the gel-based screen (reason for exclusion) [2]: internal fluorescence

COC(=O)c1cc(O)c(=O)c2c(O)c(O)ccc2c1 [Compound 61, METHYL 7-DESHYDROXYPYROGALLIN-4-CARBOXYLATE]
Displacement of ethidium bromide from DNA [1]: do not appear to significantly displace ethidium bromide

C[C@@H]1CC[C@@]23CCC4(C)[C@@](C=CC5[C@@]6(C)CCC(=O)C(C)(C)C6CC[C@]54C)(OC2=O)C3[C@H]1C (some centres unmarked) [Compound 44, 3-OXOURSAN (28-13)OLIDE]
Assay interference in the gel-based screen (reason for exclusion) [2]: internal fluorescence

O=c1cc(-c2ccc(O)c(-c3c(O)cc(O)c4c(=O)cc(-c5ccc(O)cc5)oc34)c2)oc2cc(O)cc(O)c12 [Compound 13, AMENTOFLAVONE]
Cell survival with sublethal cisplatin (potentiation) [3]: reduced cell survival
Displacement of ethidium bromide from DNA [1]: do not appear to significantly displace ethidium bromide

Nc1c(S(=O)(=O)O)cc(Nc2ccc(Nc3nc(Cl)nc(Nc4cccc(S(=O)(=O)O)c4)n3)c(S(=O)(=O)O)c2)c2c1C(=O)c1ccccc1C2=O [Compound 30, REACTIVE BLUE 2]
Cell survival with sublethal cisplatin (potentiation) [3]: reduced cell survival
Displacement of ethidium bromide from DNA [1]: apparent nonspecific interactions with DNA

O=C(O)C1=CC(=C(c2ccc(O)c(C(=O)O)c2)c2ccc(O)c(C(=O)O)c2)C=CC1=O [Compound 20, AURINTRICARBOXYLIC ACID]
Displacement of ethidium bromide from DNA [1]: apparent nonspecific interactions with DNA
Nuclease inhibition [4]: nonspecific nuclease inhibitor
Exonuclease IC50 [5]: nanomolar range

Reference: paper PMC8047731 (ACS Omega, 2021)
